Data published in patent US10597388B2, “Pyridazinone herbicides” (FMC CORPORATION, priority 2014, dated 2020).

Legend:
Assay type in all cases: in vivo
[1] = tested on: ryegrass, Italian (Italian ryegrass, Lolium multiflorum); assay: Test D controlled growth environment herbicide test, pre- and postemergence; conditions: for Ryegrass, Italian plant response rating / Plant response rating (scale of 0 to 100), Ryegrass, Italian: 31 g ai/ha
Summary of the method: (§1)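 Species sown in silt loam and sprayed preemergence, or grown in peat-based medium to 2–18 cm (1- to 4-leaf stage) and sprayed postemergence, with compounds in non-phytotoxic solvent plus surfactant. Visual injury scored versus controls after 14–21 d in a controlled environment, 0 (no effect) to 100 (complete control).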

[2] = tested on: mustard, wild (wild mustard, Sinapis arvensis); assay: as above; conditions: for Mustard, Wild plant response rating / Plant response rating (scale of 0 to 100), Mustard, Wild: 31 g ai/ha
Summary of the method: as §1

[3] = tested on: buckwheat, wild (wild buckwheat, Polygonum convolvulus); assay: as above
Summary of the method: as §1

[4] = tested on: crabgrass, large (large crabgrass, Digitaria sanguinalis); assay: Test E greenhouse herbicide test, pre- and postemergence; conditions: Preemergence
Summary of the method: (§2)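 Herbicidal effect was judged by eye relative to untreated plants 14 to 21 d after spraying, using 0 for no effect and 100 for complete control. Preemergence sprays went onto freshly seeded silt loam; postemergence sprays onto 2–18 cm seedlings.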

[5] = tested on: Italian ryegrass (Lolium multiflorum); assay: as above
Summary of the method: as §2

[6] = tested on: kochia (Kochia scoparia); assay: as above
Summary of the method: as §2

[7] = tested on: surinam grass (Brachiaria decumbens); assay: as above; conditions: Preemergence
Summary of the method: as §2

[8] = tested on: nightshade (eastern black nightshade, Solanum ptycanthum); assay: as above; conditions: Preemergence
Summary of the method: as §2

[9] = tested on: momingglory (Ipomoea coccinea); assay: as above; conditions: Preemergence
Summary of the method: as §2

[10] = tested on: crabgrass, Brazilian (Brazilian crabgrass, Digitaria horizontalis); assay: as above
Summary of the method: as §2

[11] = Postemergence, scale 0 to 100 (0 no effect, 100 complete control)
[12] = Postemergence, 125 g ai/ha, visual rating on scale 0 (no effect) to 100 (complete control), 14 to 21 d
[13] = Postemergence, 250 g ai/ha, scale 0 to 100 (0 no effect, 100 complete control)
[14] = Preemergence, 62 g ai/ha, scale 0 to 100 (0 no effect, 100 complete control)
[15] = Preemergence, 125 g ai/ha, scale 0 to 100 (0 no effect, 100 complete control)
[16] = Preemergence, 250 g ai/ha, scale 0 to 100, 0 no effect, 100 complete control
[17] = postemergence, 62 g ai/ha, scale 0 to 100, 0 no effect, 100 complete control
[18] = Postemergence, 31 g ai/ha, scale 0 to 100 (0 no effect, 100 complete control)
[19] = 62 g ai/ha, scale 0 to 100 (0 no effect, 100 complete control)
[20] = 31 g ai/ha, scale 0 to 100, 0 no effect, 100 complete control
[21] = 125 g ai/ha, visual, scale 0 no effect to 100 complete control
[22] = 250 g ai/ha, visual, scale 0 no effect to 100 complete control
[23] = 62 g ai/ha, Postemergence, scale 0 to 100 (0 no effect, 100 complete control)
[24] = 62 g ai/ha, Preemergence, scale 0 to 100 (0 no effect, 100 complete control)
[25] = 125 g ai/ha, Postemergence, scale 0 to 100 (0 no effect, 100 complete control)
[26] = 125 g ai/ha, Preemergence, scale 0 to 100 (0 no effect, 100 complete control)
[27] = 250 g ai/ha, Postemergence, scale 0 to 100 (0 no effect, 100 complete control)
[28] = Postemergence, 31 g ai/ha, visual, scale 0 no effect to 100 complete control
[29] = Preemergence, 31 g ai/ha, scale 0 to 100, 0 no effect, 100 complete control
[30] = Preemergence, 250 g ai/ha, visual, scale 0 no effect to 100 complete control
[31] = Preemergence, 125 g ai/ha, visual, scale 0 no effect to 100 complete control
[32] = 125 g ai/ha, scale 0 to 100 (0 no effect, 100 complete control)
[33] = 16 g ai/ha, scale 0 to 100, 0 no effect, 100 complete control
[34] = Postemergence, 16 g ai/ha, visual, scale 0 no effect to 100 complete control
[35] = Preemergence, 16 g ai/ha, scale 0 to 100, 0 no effect, 100 complete control

SMILES: Cc1nn(C)c(=O)c(-c2ccc(F)c3ccccc23)c1O [Compound 41]
- Ryegrass, Italian plant response rating [1, 11]: 80
- Plant response rating, Ryegrass, Italian [1, 12]: 85
- Plant response rating, Ryegrass, Italian [1, 13]: 90
- Plant response rating (scale of 0 to 100), Ryegrass, Italian ([1]; Preemergence): 95
- Plant response rating, Ryegrass, Italian [1, 14]: 100
- Plant response rating, Ryegrass, Italian [1, 15]: 100
- Plant response rating, Ryegrass, Italian [1, 16]: 100
- Plant response rating, Ryegrass, Italian [1, 17]: 85
- Mustard, Wild plant response rating [2, 11]: 90
- Plant response rating, Mustard, Wild [2, 12]: 100
- Plant response rating, Mustard, Wild [2, 13]: 100
- Plant response rating (scale of 0 to 100), Mustard, Wild ([2]; Preemergence): 70
- Plant response rating, Mustard, Wild [2, 14]: 90
- Plant response rating, Mustard, Wild [2, 15]: 95
- Plant response rating, Mustard, Wild [2, 16]: 95
- Plant response rating, Mustard, Wild [2, 17]: 100
- Buckwheat, Wild plant response rating [3, 18]: 80
- Plant response rating, Buckwheat, Wild [3, 12]: 95
- Plant response rating, Buckwheat, Wild [3, 13]: 100
- Plant response rating (scale of 0 to 100), Buckwheat, Wild ([3]; Preemergence, 31 g ai/ha): 35
- Plant response rating, Buckwheat, Wild [3, 14]: 55
- Plant response rating, Buckwheat, Wild [3, 15]: 65
- Plant response rating, Buckwheat, Wild [3, 16]: 75
- Plant response rating, Buckwheat, Wild [3, 17]: 90
- Plant response rating, Crabgrass, Large [4, 19]: 70
- Plant response rating, Crabgrass, Large [4, 20]: 65
- Plant response rating, Crabgrass, Large [4, 21]: 80
- Plant response rating, Crabgrass, Large [4, 22]: 60
- Plant response rating, Ryegrass, Italian [5, 23]: 85
- Plant response rating, Ryegrass, Italian [5, 24]: 100
- Plant response rating, Ryegrass, Italian [5, 25]: 85
- Plant response rating, Ryegrass, Italian [5, 26]: 100
- Plant response rating, Ryegrass, Italian [5, 27]: 90
- Plant response rating, Ryegrass, Italian [5, 28]: 80
- Plant response rating, Ryegrass, Italian [5, 29]: 98
- Plant response rating, Ryegrass, Italian [5, 30]: 100
- Plant response rating, Kochia [6, 23]: 95
- Plant response rating, Kochia [6, 24]: 90
- Plant response rating, Kochia [6, 25]: 95
- Plant response rating, Kochia [6, 27]: 95
- Plant response rating, Kochia [6, 28]: 90
- Plant response rating, Kochia [6, 29]: 90
- Plant response rating, Kochia [6, 31]: 100
- Plant response rating, Kochia [6, 30]: 100
- Plant response rating, Surinam Grass [7, 19]: 75
- Plant response rating, Surinam Grass [7, 32]: 75
- Plant response rating, Surinam Grass [7, 20]: 10
- Plant response rating, Surinam Grass [7, 22]: 95
- Plant response rating, Nightshade [8, 19]: 80
- Plant response rating, Nightshade [8, 32]: 98
- Plant response rating, Nightshade [8, 20]: 25
- Plant response rating, Nightshade [8, 22]: 98
- Plant response rating, Morningglory [9, 19]: 50
- Plant response rating, Morningglory [9, 32]: 90
- Plant response rating, Morningglory [9, 20]: 30
- Plant response rating, Morningglory [9, 22]: 95
- Plant response rating, Crabgrass, Brazil [10, 23]: 20
- Plant response rating, Crabgrass, Brazil [10, 24]: 65
- Plant response rating, Crabgrass, Brazil [10, 25]: 30
- Plant response rating, Crabgrass, Brazil [10, 27]: 50
- Plant response rating, Crabgrass, Brazil [10, 28]: 10
- Plant response rating, Crabgrass, Brazil [10, 29]: 80
- Plant response rating, Crabgrass, Brazil [10, 31]: 100
- Plant response rating, Crabgrass, Brazil [10, 30]: 80

SMILES: Cc1cc(C)c2sc(C)c(-c3c(O)c(C)nn(C)c3=O)c2c1 [Compound 2, 5-hydroxy-2,6-dimethyl-4-(2,5,7-trimethylbenzo[b]thien-3-yl)-3(2H)-pyridazinone]
- Ryegrass, Italian plant response rating [1, 11]: 70
- Plant response rating, Ryegrass, Italian [1, 12]: 85
- Plant response rating, Ryegrass, Italian [1, 13]: 90
- Plant response rating (scale of 0 to 100), Ryegrass, Italian ([1]; Preemergence): 85
- Plant response rating, Ryegrass, Italian [1, 14]: 95
- Plant response rating, Ryegrass, Italian [1, 15]: 100
- Plant response rating, Ryegrass, Italian [1, 16]: 100
- Plant response rating, Ryegrass, Italian [1, 17]: 80
- Mustard, Wild plant response rating [2, 11]: 25
- Plant response rating, Mustard, Wild [2, 12]: 40
- Plant response rating, Mustard, Wild [2, 13]: 55
- Plant response rating (scale of 0 to 100), Mustard, Wild ([2]; Preemergence): 0
- Plant response rating, Mustard, Wild [2, 14]: 0
- Plant response rating, Mustard, Wild [2, 15]: 5
- Plant response rating, Mustard, Wild [2, 16]: 40
- Plant response rating, Mustard, Wild [2, 17]: 35
- Buckwheat, Wild plant response rating [3, 18]: 85
- Plant response rating, Buckwheat, Wild [3, 12]: 100
- Plant response rating, Buckwheat, Wild [3, 13]: 100
- Plant response rating, Buckwheat, Wild [3, 14]: 10
- Plant response rating, Buckwheat, Wild [3, 15]: 100
- Plant response rating, Buckwheat, Wild [3, 16]: 100
- Plant response rating, Buckwheat, Wild [3, 17]: 95
- Plant response rating, Crabgrass, Large [4, 19]: 0
- Plant response rating, Crabgrass, Large [4, 33]: 0
- Plant response rating, Crabgrass, Large [4, 20]: 0
- Plant response rating, Crabgrass, Large [4, 21]: 30
- Plant response rating, Crabgrass, Large [4, 22]: 60
- Plant response rating, Ryegrass, Italian [5, 23]: 50
- Plant response rating, Ryegrass, Italian [5, 24]: 98
- Plant response rating, Ryegrass, Italian [5, 25]: 65
- Plant response rating, Ryegrass, Italian [5, 26]: 100
- Plant response rating, Ryegrass, Italian [5, 27]: 75
- Plant response rating, Ryegrass, Italian [5, 34]: 20
- Plant response rating, Ryegrass, Italian [5, 28]: 30
- Plant response rating, Ryegrass, Italian [5, 35]: 50
- Plant response rating, Ryegrass, Italian [5, 29]: 95
- Plant response rating, Ryegrass, Italian [5, 30]: 100
- Plant response rating, Kochia [6, 24]: 0
- Plant response rating, Kochia [6, 35]: 0
- Plant response rating, Kochia [6, 29]: 0
- Plant response rating, Kochia [6, 31]: 0
- Plant response rating, Kochia [6, 30]: 40
- Plant response rating, Surinam Grass [7, 19]: 75
- Plant response rating, Surinam Grass [7, 32]: 90
- Plant response rating, Surinam Grass [7, 33]: 5
- Plant response rating, Surinam Grass [7, 20]: 35
- Plant response rating, Surinam Grass [7, 22]: 95
- Plant response rating, Nightshade [8, 19]: 98
- Plant response rating, Nightshade [8, 32]: 98
- Plant response rating, Nightshade [8, 33]: 35
- Plant response rating, Nightshade [8, 20]: 75
- Plant response rating, Nightshade [8, 22]: 100
- Plant response rating, Morningglory [9, 19]: 90
- Plant response rating, Morningglory [9, 32]: 100
- Plant response rating, Morningglory [9, 33]: 0
- Plant response rating, Morningglory [9, 20]: 75
- Plant response rating, Morningglory [9, 22]: 100
- Plant response rating, Crabgrass, Brazil [10, 23]: 0
- Plant response rating, Crabgrass, Brazil [10, 24]: 60
- Plant response rating, Crabgrass, Brazil [10, 25]: 10
- Plant response rating, Crabgrass, Brazil [10, 27]: 15
- Plant response rating, Crabgrass, Brazil [10, 34]: 0
- Plant response rating, Crabgrass, Brazil [10, 28]: 10
- Plant response rating, Crabgrass, Brazil [10, 35]: 0
- Plant response rating, Crabgrass, Brazil [10, 29]: 35
- Plant response rating, Crabgrass, Brazil [10, 31]: 50
- Plant response rating, Crabgrass, Brazil [10, 30]: 100
